Experimental data published in patent publication US8614236B2 (University of Washington, priority 2006, dated 2013).
“Also recorded” adds a separate entry of the source.

How the values were obtained:
PASMCs = assay: KCl-induced Ca2+ responses in PASMCs; type: cell-based, rat
Protocol: Intrapulmonary arteries (200-600 μm o.d.) were isolated from male Wistar rats (250-350 g) and cleaned of connective tissue. After the lumen was gently rubbed with a cotton swab to remove the endothelial cells, the arteries were allowed to recover for 30 minutes in cold (4° C.) HBSS containing (in mM): 130 NaCl, 5 KCl, 1.2 MgCl2, 1.5 CaCl2, 10 N-[2-hydroxyethyl]piperazine-N′-[2-ethanesulfonic acid] (HEPES) and 10 glucose, with pH adjusted to 7.2 with 5 M NaOH, followed by 20 minutes in reduced-Ca^2+ (20 μM CaCl2) HBSS at room temperature. […] Following digestion, single smooth muscle cells were dispersed by gentle trituration with a wide-bore transfer pipette in Ca^2+-free HBSS and the cell suspension was placed on 25 mm glass cover slips. PASMCs were transiently cultured in Ham's-F-12 media supplemented with 0.5% fetal bovine serum and 1% penicillin/streptomycin for 24-48 hrs. before study.
Acute hypoxia increases intracellular [Ca^2+] in pulmonary arterial smooth muscle by enhancing capacitative Ca^2+ entry. […] Ratiometric measurement of fluorescence from the dye was performed on a workstation (Intracellular Imaging Inc, Cincinnati, Ohio) consisting of a Nikon TSE 100 Ellipse inverted microscope with epi-fluorescence attachments. The light beam from a xenon arc lamp was filtered at 340 and 380 nm, and focused onto the PASMCS under examination via a 20× fluorescence objective (Super Fluor 20, Nikon). Light emitted from the cell at 510 nm was returned through the objective and detected by a cooled CCD imaging camera. An electronic shutter (Sutter Instruments) was used to minimize photobleaching of dye. Protocols were executed and data collected on-line with InCyte software (Intracellular Imaging Inc). [Ca^2+]i was estimated from in vitro calibration solutions.

unanesthetized dogs = assay: Effect of inhaled acetazolamide in unanesthetized dogs during hypoxia (vs iv and oral); type: in vivo, dog
[1] = inhaled 750 mg after 1 h of normoxia, hypoxia 2nd h
[2] = inhaled 750 mg after 1 h of normoxia, hypoxia 3rd h
[3] = inhaled 750 mg after 1 h of normoxia, normoxia 1st h
[4] = iv 2 mg/kg bolus + 2 mg/kg/h, hypoxia 2nd h
[5] = iv 2 mg/kg bolus + 2 mg/kg/h, hypoxia 3rd h
[6] = iv 2 mg/kg bolus + 2 mg/kg/h, normoxia 1st h
[7] = oral 5 mg/kg -12 h and -1 h, hypoxia 2nd h
[8] = oral 5 mg/kg -12 h and -1 h, hypoxia 3rd h
[9] = oral 5 mg/kg -12 h and -1 h, normoxia 1st h

`CC(=O)Nc1nnc(S(N)(=O)=O)s1` [AZ, acetazolamide] was tested, and the “effect on KCl-induced increase in [Ca^2+]i” value (PASMCs; 100 μM) was “no effect; also recorded: not altered”, the “[Ca^2+]i after KCl” value (PASMCs; KCl 60 mM, pretreatment 100 μM) was 292.6 ± 21.2 nM and the “mean change in [Ca^2+]i in response to KCl” value (PASMCs; KCl 60 mM, pretreatment 100 μM, control 123.4±20.6 nM) was 134.7 ± 18.2 nM. For the same compound, the “[Ca^2+]i before KCl” value (PASMCs; pretreatment 100 μM) was 157.8 ± 11.9 nM, the BEa (unanesthetized dogs; [1]) was -5.2 ± 0.6 mM and the CO (unanesthetized dogs; [1]) was 2.3 ± 0.2 L/min. It also gave a CVP (unanesthetized dogs; [1]) of 2.5 ± 0.3 cmH2O, a GFR (unanesthetized dogs; [1]) of 3.7 ± 0.3 mL·min and an HCO3a (unanesthetized dogs; [1]) of 17.1 ± 0.6 mM. The HR (unanesthetized dogs; [1]) was 86 ± 6 beats/min, the MAP (unanesthetized dogs; [1]) was 105 ± 5 mmHg and the MPAP (unanesthetized dogs; [1]) was 15 ± 1 mmHg. For the same compound, the PCWP (unanesthetized dogs; [1]) was 3.9 ± 0.4 cmH2O, the PVR (unanesthetized dogs; [1]) was 395 ± 29 dyn s^−1 cm and the PaCO2 (unanesthetized dogs; [1]) was 26 ± 1 Torr. The PaO2 (unanesthetized dogs; [1]) was 39 ± 1 Torr, the UNaV (unanesthetized dogs; [1]) was 8.0 ± 1.3 µmol·min and the UV (unanesthetized dogs; [1]) was 99 ± 16 μ min^−1 kg^−1. The VE (unanesthetized dogs; [1]) was 5.5 ± 0.5 L/min, the BEa (unanesthetized dogs; [2]) was -5.7 ± 0.7 mM and the CO (unanesthetized dogs; [2]) was 2.5 ± 0.1 L/min. It also gave a CVP (unanesthetized dogs; [2]) of 2.1 ± 0.2 cmH2O, a GFR (unanesthetized dogs; [2]) of 3.6 ± 0.3 mL·min and an HCO3a (unanesthetized dogs; [2]) of 16.4 ± 0.5 mM. It also gave an HR (unanesthetized dogs; [2]) of 100 ± 8 beats/min, an MAP (unanesthetized dogs; [2]) of 105 ± 5 mmHg and an MPAP (unanesthetized dogs; [2]) of 15 ± 1 mmHg. The PCWP (unanesthetized dogs; [2]) was 3.6 ± 0.2 cmH2O, the PVR (unanesthetized dogs; [2]) was 388 ± 30 dyn s^−1 cm and the PaCO2 (unanesthetized dogs; [2]) was 25 ± 1 Torr. The PaO2 (unanesthetized dogs; [2]) was 36 ± 1 Torr, the UNaV (unanesthetized dogs; [2]) was 5.1 ± 0.7 µmol·min and the UV (unanesthetized dogs; [2]) was 81 ± 15 μ min^−1 kg^−1. The VE (unanesthetized dogs; [2]) was 5.7 ± 0.4 L/min, the BEa (unanesthetized dogs; [3]) was -3.9 ± 0.6 mM and the CO (unanesthetized dogs; [3]) was 2.5 ± 0.1 L/min. For the same compound, the CVP (unanesthetized dogs; [3]) was 2.8 ± 0.3 cmH2O, the GFR (unanesthetized dogs; [3]) was 4.0 ± 0.4 mL·min and the HCO3a (unanesthetized dogs; [3]) was 20.2 ± 0.5 mM. For the same compound, the HR (unanesthetized dogs; [3]) was 85 ± 5 beats/min, the MAP (unanesthetized dogs; [3]) was 92 ± 4 mmHg and the MPAP (unanesthetized dogs; [3]) was 13 ± 1 mmHg. The PCWP (unanesthetized dogs; [3]) was 4.3 ± 0.4 cmH2O, the PVR (unanesthetized dogs; [3]) was 298 ± 21 dyn s^−1 cm and the PaCO2 (unanesthetized dogs; [3]) was 36 ± 1 Torr. For the same compound, the PaO2 (unanesthetized dogs; [3]) was 101 ± 2 Torr, the UNaV (unanesthetized dogs; [3]) was 0.4 ± 0.1 µmol·min and the UV (unanesthetized dogs; [3]) was 33 ± 8 μ min^−1 kg^−1. For the same compound, the VE (unanesthetized dogs; [3]) was 3.2 ± 0.2 L/min, the “pulmonary vascular response to hypoxia” value (unanesthetized dogs; inhaled, 12% oxygen for two hours) was “successful in reducing” and the BEa (unanesthetized dogs; [4]) was -4.6 ± 0.4 mM. The CO (unanesthetized dogs; [4]) was 3.0 ± 0.4 L/min, the CVP (unanesthetized dogs; [4]) was 2.2 ± 0.3 cmH2O and the GFR (unanesthetized dogs; [4]) was 3.4 ± 0.3 mL·min. The HCO3a (unanesthetized dogs; [4]) was 18.5 ± 0.5 mM, the HR (unanesthetized dogs; [4]) was 103 ± 6 beats/min and the MAP (unanesthetized dogs; [4]) was 102 ± 8 mmHg. It also gave an MPAP (unanesthetized dogs; [4]) of 15 ± 1 mmHg, a PCWP (unanesthetized dogs; [4]) of 3.5 ± 0.3 cmH2O and a PVR (unanesthetized dogs; [4]) of 312 ± 36 dyn s^−1 cm. The PaCO2 (unanesthetized dogs; [4]) was 30 ± 1 Torr, the PaO2 (unanesthetized dogs; [4]) was 37 ± 1 Torr and the UNaV (unanesthetized dogs; [4]) was 4.0 ± 0.6 µmol·min. The UV (unanesthetized dogs; [4]) was 135 ± 27 μ min^−1 kg^−1, the VE (unanesthetized dogs; [4]) was 6.5 ± 0.5 L/min and the BEa (unanesthetized dogs; [5]) was -6.1 ± 0.6 mM. It also gave a CO (unanesthetized dogs; [5]) of 2.9 ± 0.5 L/min, a CVP (unanesthetized dogs; [5]) of 2.3 ± 0.4 cmH2O and a GFR (unanesthetized dogs; [5]) of 3.8 ± 0.3 mL·min. For the same compound, the HCO3a (unanesthetized dogs; [5]) was 17.1 ± 0.5 mM, the HR (unanesthetized dogs; [5]) was 106 ± 7 beats/min and the MAP (unanesthetized dogs; [5]) was 103 ± 7 mmHg. For the same compound, the MPAP (unanesthetized dogs; [5]) was 14 ± 1 mmHg, the PCWP (unanesthetized dogs; [5]) was 3.7 ± 0.3 cmH2O and the PVR (unanesthetized dogs; [5]) was 305 ± 26 dyn s^−1 cm. It also gave a PaCO2 (unanesthetized dogs; [5]) of 27 ± 1 Torr, a PaO2 (unanesthetized dogs; [5]) of 38 ± 1 Torr and a UNaV (unanesthetized dogs; [5]) of 5.4 ± 1.2 µmol·min. For the same compound, the UV (unanesthetized dogs; [5]) was 68 ± 12 μ min^−1 kg^−1, the VE (unanesthetized dogs; [5]) was 6.9 ± 0.5 L/min and the BEa (unanesthetized dogs; [6]) was -4.0 ± 0.5 mM. The CO (unanesthetized dogs; [6]) was 2.6 ± 0.2 L/min, the CVP (unanesthetized dogs; [6]) was 1.8 ± 0.3 cmH2O and the GFR (unanesthetized dogs; [6]) was 3.5 ± 0.3 mL·min. It also gave an HCO3a (unanesthetized dogs; [6]) of 20.2 ± 0.4 mM, an HR (unanesthetized dogs; [6]) of 74 ± 4 beats/min and an MAP (unanesthetized dogs; [6]) of 95 ± 5 mmHg. The MPAP (unanesthetized dogs; [6]) was 13 ± 1 mmHg, the PCWP (unanesthetized dogs; [6]) was 3.8 ± 0.5 cmH2O and the PVR (unanesthetized dogs; [6]) was 283 ± 37 dyn s^−1 cm. The PaCO2 (unanesthetized dogs; [6]) was 34 ± 1 Torr, the PaO2 (unanesthetized dogs; [6]) was 107 ± 3 Torr and the UNaV (unanesthetized dogs; [6]) was 3.8 ± 0.6 µmol·min. The UV (unanesthetized dogs; [6]) was 102 ± 12 μ min^−1 kg^−1, the VE (unanesthetized dogs; [6]) was 4.1 ± 0.4 L/min and the BEa (unanesthetized dogs; [7]) was -6.3 ± 0.6 mM. It also gave a CO (unanesthetized dogs; [7]) of 2.7 ± 0.2 L/min, a CVP (unanesthetized dogs; [7]) of 1.9 ± 0.2 cmH2O and a GFR (unanesthetized dogs; [7]) of 3.3 ± 0.2 mL·min. For the same compound, the HCO3a (unanesthetized dogs; [7]) was 16.7 ± 0.6 mM, the HR (unanesthetized dogs; [7]) was 109 ± 5 beats/min and the MAP (unanesthetized dogs; [7]) was 106 ± 6 mmHg. The MPAP (unanesthetized dogs; [7]) was 17 ± 1 mmHg, the PCWP (unanesthetized dogs; [7]) was 3.5 ± 0.3 cmH2O and the PVR (unanesthetized dogs; [7]) was 375 ± 33 dyn s^−1 cm. For the same compound, the PaCO2 (unanesthetized dogs; [7]) was 28 ± 1 Torr, the PaO2 (unanesthetized dogs; [7]) was 37 ± 1 Torr and the UNaV (unanesthetized dogs; [7]) was 1.7 ± 0.5 µmol·min. For the same compound, the UV (unanesthetized dogs; [7]) was 84 ± 15 μ min^−1 kg^−1, the VE (unanesthetized dogs; [7]) was 6.6 ± 0.4 L/min and the BEa (unanesthetized dogs; [8]) was -6.4 ± 0.4 mM. The CO (unanesthetized dogs; [8]) was 2.3 ± 0.1 L/min, the CVP (unanesthetized dogs; [8]) was 1.9 ± 0.2 cmH2O and the GFR (unanesthetized dogs; [8]) was 3.3 ± 0.2 mL·min. For the same compound, the HCO3a (unanesthetized dogs; [8]) was 16.1 ± 0.4 mM, the HR (unanesthetized dogs; [8]) was 102 ± 7 beats/min and the MAP (unanesthetized dogs; [8]) was 107 ± 6 mmHg. The MPAP (unanesthetized dogs; [8]) was 17 ± 1 mmHg, the PCWP (unanesthetized dogs; [8]) was 3.5 ± 0.3 cmH2O and the PVR (unanesthetized dogs; [8]) was 431 ± 45 dyn s^−1 cm. It also gave a PaCO2 (unanesthetized dogs; [8]) of 26 ± 1 Torr, a PaO2 (unanesthetized dogs; [8]) of 37 ± 1 Torr and a UNaV (unanesthetized dogs; [8]) of 1.5 ± 0.4 µmol·min. The UV (unanesthetized dogs; [8]) was 55 ± 8 μ min^−1 kg^−1, the VE (unanesthetized dogs; [8]) was 6.3 ± 0.2 L/min and the BEa (unanesthetized dogs; [9]) was -6.5 ± 0.3 mM. For the same compound, the CO (unanesthetized dogs; [9]) was 2.3 ± 0.2 L/min, the CVP (unanesthetized dogs; [9]) was 2.3 ± 0.3 cmH2O and the GFR (unanesthetized dogs; [9]) was 3.0 ± 0.2 mL·min. For the same compound, the HCO3a (unanesthetized dogs; [9]) was 17.6 ± 0.3 mM, the HR (unanesthetized dogs; [9]) was 85 ± 3 beats/min and the MAP (unanesthetized dogs; [9]) was 95 ± 3 mmHg. For the same compound, the MPAP (unanesthetized dogs; [9]) was 12 ± 1 mmHg, the PCWP (unanesthetized dogs; [9]) was 3.9 ± 0.3 cmH2O and the PVR (unanesthetized dogs; [9]) was 298 ± 27 dyn s^−1 cm. The PaCO2 (unanesthetized dogs; [9]) was 32 ± 1 Torr, the PaO2 (unanesthetized dogs; [9]) was 108 ± 2 Torr and the UNaV (unanesthetized dogs; [9]) was 1.4 ± 0.6 µmol·min. The UV (unanesthetized dogs; [9]) was 50 ± 9 μ min^−1 kg^−1 and the VE (unanesthetized dogs; [9]) was 4.6 ± 0.3 L/min.
